Data taken from US20260060987A1, “METHODS AND COMPOSITIONS FOR RADIOPROTECTION AND MITIGATION OF RADIATION-INDUCED INJURY USING KINASE INHIBITORS” (Incyte Corporation, priority 2024, published 2026).

Target: PI3Kδ (Homo sapiens, UniProt O00329)
Test: PI3Kδ inhibition, IC50 at 1 mM ATP
Assay type: biochemical

Sequence of PI3Kδ (O00329 whole entry): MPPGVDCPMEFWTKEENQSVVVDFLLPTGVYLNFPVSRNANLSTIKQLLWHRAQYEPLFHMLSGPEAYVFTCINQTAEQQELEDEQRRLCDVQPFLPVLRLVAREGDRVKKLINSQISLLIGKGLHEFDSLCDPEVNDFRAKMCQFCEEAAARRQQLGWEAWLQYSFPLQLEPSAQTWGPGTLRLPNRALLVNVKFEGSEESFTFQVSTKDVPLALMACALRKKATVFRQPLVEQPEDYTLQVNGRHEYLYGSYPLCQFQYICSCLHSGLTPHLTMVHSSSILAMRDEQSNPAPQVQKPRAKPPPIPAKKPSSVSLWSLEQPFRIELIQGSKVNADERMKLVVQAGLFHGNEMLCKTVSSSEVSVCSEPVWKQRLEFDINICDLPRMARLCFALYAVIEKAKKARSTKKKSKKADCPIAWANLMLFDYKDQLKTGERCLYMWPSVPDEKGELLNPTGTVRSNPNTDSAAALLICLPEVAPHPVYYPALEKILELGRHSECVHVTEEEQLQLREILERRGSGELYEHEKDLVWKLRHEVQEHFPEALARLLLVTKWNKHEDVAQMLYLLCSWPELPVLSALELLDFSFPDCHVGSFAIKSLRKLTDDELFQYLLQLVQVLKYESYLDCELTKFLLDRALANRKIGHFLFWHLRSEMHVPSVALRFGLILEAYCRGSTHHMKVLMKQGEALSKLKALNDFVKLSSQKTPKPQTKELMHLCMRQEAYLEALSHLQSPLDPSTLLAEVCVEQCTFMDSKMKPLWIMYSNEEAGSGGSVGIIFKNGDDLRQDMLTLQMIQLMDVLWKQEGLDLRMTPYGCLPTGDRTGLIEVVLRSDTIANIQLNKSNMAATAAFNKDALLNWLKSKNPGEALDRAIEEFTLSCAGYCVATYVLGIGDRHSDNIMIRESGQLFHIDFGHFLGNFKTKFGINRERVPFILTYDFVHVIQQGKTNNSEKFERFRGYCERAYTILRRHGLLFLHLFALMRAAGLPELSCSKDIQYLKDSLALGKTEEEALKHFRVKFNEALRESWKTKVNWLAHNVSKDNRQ
Sequence of PI3Kδ (P27986 whole entry partner): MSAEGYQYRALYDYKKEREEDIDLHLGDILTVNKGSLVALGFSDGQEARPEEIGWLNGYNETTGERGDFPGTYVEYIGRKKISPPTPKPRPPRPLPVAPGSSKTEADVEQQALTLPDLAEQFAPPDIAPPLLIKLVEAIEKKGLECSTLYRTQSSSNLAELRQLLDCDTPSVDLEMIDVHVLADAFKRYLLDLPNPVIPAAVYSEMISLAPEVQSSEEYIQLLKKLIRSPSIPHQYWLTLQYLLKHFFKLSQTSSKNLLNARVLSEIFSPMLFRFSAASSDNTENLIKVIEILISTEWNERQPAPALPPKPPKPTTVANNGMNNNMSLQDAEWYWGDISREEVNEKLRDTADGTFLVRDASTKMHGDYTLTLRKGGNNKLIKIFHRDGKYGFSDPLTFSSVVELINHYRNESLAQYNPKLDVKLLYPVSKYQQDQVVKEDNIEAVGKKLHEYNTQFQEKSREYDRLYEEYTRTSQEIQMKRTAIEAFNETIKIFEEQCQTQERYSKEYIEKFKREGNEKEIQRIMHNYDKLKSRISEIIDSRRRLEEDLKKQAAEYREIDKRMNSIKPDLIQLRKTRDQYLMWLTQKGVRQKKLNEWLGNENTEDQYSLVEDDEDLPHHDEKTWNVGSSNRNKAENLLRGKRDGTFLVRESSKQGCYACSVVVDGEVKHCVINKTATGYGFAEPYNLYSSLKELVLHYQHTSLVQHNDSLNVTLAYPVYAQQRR

IC50: 1 nM
Structure (SMILES): CCOc1c([C@H](C)n2nc(C)c3c(N)ncnc32)cc(Cl)c(F)c1[C@@H]1CNC(=O)C1 [parsaclisib, (R)-4-(3-((S)-1-(4-amino-3-methyl-1H-pyrazolo[3,4-d]pyrimidin-1-yl)ethyl)-5-chloro-2-ethoxy-6-fluorophenyl) pyrrolidin-2-one]
